The text below walks through data of US20250195530A1, “POLQ INHIBITORS” (ASTRAZENECA AB, priority 2022, published 2025).

Like-named read-outs stand apart in the source and are kept apart here.

One assay has as its system DLD-1 BRCA2−/− cells. Kind of assay: Homologous recombination synthetic lethal inhibition of proliferation, DLD-1 BRCA2-/- (Cell Titre Glo 3D). It is filed as cell-based. The conditions noted are these: for IC50: Homo sapiens; for POLQ PD Prolif Lumin BRCA2 −/− mean pIC50: DLD-1 BRCA2 −/−. An outline of the steps: (§1)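 Isogenic DLD-1 pair; BRCA2−/− seeded 3,000 cells/mL and read day 12, wt seeded 1,500 cells/mL and read day 7. 10-pt titration (top 10 μM, 3-fold), re-fed with compound day 6, 37 °C/5% CO2. CTG 3D endpoint; IC50 at 50% signal loss.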

Another assay has as its system DLD-1 cells. In words: Inhibition of proliferation, DLD-1 BRCA2 wt control (Cell Titre Glo 3D). It is filed as cell-based. The settings on record: for IC50: Homo sapiens; for POLQ PD Prolif Lumin DLD1 mean pIC50: DLD1 BRCA2 wt. An outline of the steps: as §1
[1] abbreviates: DLD-1, proliferation, luminescence, taken as DLD-1 BRCA2-/-, read-out: POLQ PD Prolif Lumin (converted).
[2] abbreviates: DLD-1, proliferation, luminescence, second Prolif column (c6), taken as DLD-1 BRCA2 wt control, read-out: POLQ PD Prolif Lumin (converted).
Setting [3] is: DLD-1, first proliferation column (c5), DLD-1 BRCA2-/-, read-out: POLQ PD Prolif Lumin (converted).
The mark [4] stands for this setting: DLD-1, second proliferation column (c6), DLD-1 BRCA2 wt control, read-out: POLQ PD Prolif Lumin (converted).
Setting [5] is: DLD-1, 288 h, DLD-1 BRCA2−/− cells, 12 days, read-out: POLQ PD Prolif Lumin BRCA2 −/− mean pIC50 (converted).
Setting [6] is: DLD-1, 168 h, DLD-1 BRCA2 wt cells, 7 days, read-out: POLQ PD Prolif Lumin DLD1 mean pIC50 (converted).
[7] abbreviates: DLD-1, DLD-1 BRCA2 −/−, mean, read-out: POLQ PD Prolif Lumin BRCA2 −/− mean pIC50 (converted).
[8] abbreviates: DLD-1, DLD1 BRCA2 wt, mean, read-out: POLQ PD Prolif Lumin DLD1 mean pIC50 (converted).

Take `Cc1cnc(Cn2c(-c3ccc(OCCN4CCNC[C@@H]4C)cc3Cl)nc3c(OC4(C)CC4)ncnc32)s1` [Example T393, (S)-2-((8-(2-chloro-4-(2-(2-methylpiperazin-1-yl)ethoxy)phenyl)-6-(1-methylcyclopropoxy)-9H-purin-9-yl)methyl)-5-methylthiazole]: the IC50 in the assay on DLD-1 BRCA2−/− cells (setting [1]) is 794 nM; in the assay with DLD-1 cells (setting [2]), over 10000 nM.
Regarding `Cc1ccnc(Cn2c(-c3ccc(OCCN4CC[C@@H](O)C4)cc3Cl)nc3c(OC4(C)CC4)ncnc32)c1` [Example T512, (R)-1-(2-(3-chloro-4-(6-(1-methylcyclopropoxy)-9-((4-methylpyridin-2-yl)methyl)-9H-purin-8-yl)phenoxy)ethyl)pyrrolidin-3-ol], the results for the IC50 with DLD-1 BRCA2−/− cells (setting [3]) and in the assay on DLD-1 cells (setting [4]) were 200 nM and over 10000 nM, respectively.
On to `Cc1cnc(Cn2c(-c3ccc(OCCCN4CC[C@@H](O)C4)cc3Cl)nc3c(OC4(C)CC4)ncnc32)s1` [Example T391, (R)-1-(3-(3-chloro-4-(6-(1-methylcyclopropoxy)-9-((5-methylthiazol-2-yl)methyl)-9H-purin-8-yl)phenoxy)propyl)pyrrolidin-3-ol], for which the values for the IC50 in the assay with DLD-1 BRCA2−/− cells (setting [1]) and in the assay on DLD-1 cells (setting [2]) were 501 nM and over 10000 nM, respectively.
Turning to `CN1CCCC(Oc2ccc(-c3nc4c(OC5(C)CC5)ncnc4n3Cc3ccccc3)c(Cl)c2)CC1` (single isomer, unassigned) [Example D13, 9-benzyl-8-(2-chloro-4-((1-methylazepan-4-yl)oxy)phenyl)-6-(1-methylcyclopropoxy)-9H-purine], the IC50 in the assay with DLD-1 BRCA2−/− cells (setting [5]) is 126 nM; in the assay on DLD-1 cells (setting [6]) it was 3980 nM.
With `C[C@@H]1C(=O)NCCN1CCOc1ccc(-c2nc3c(OC4(C)CC4)ncnc3n2Cc2ccccc2)c(Cl)c1` [Example H22, (R)-4-(2-(4-(9-benzyl-6-(1-methylcyclopropoxy)-9H-purin-8-yl)-3-chlorophenoxy)ethyl)-3-methylpiperazin-2-one], the results for the IC50 with DLD-1 BRCA2−/− cells (setting [5]) and with DLD-1 cells (setting [6]) were 126 nM and over 10000 nM, respectively.
For the compound `Cc1cc(OCCN2CCNCC2)ncc1-c1nc2c(OC3(C)CC3)ncnc2n1Cc1ccccc1Cl` [Example J5, 9-(2-chlorobenzyl)-8-(4-methyl-6-(2-(piperazin-1-yl)ethoxy)pyridin-3-yl)-6-(1-methylcyclopropoxy)-9H-purine], the values for the IC50 in the assay with DLD-1 BRCA2−/− cells (setting [5]) and with DLD-1 cells (setting [6]) were 1000 nM and over 10000 nM, respectively.
`CN(C)C(=O)COc1ccc(-c2nc3c(OC4(C)CC4)ncnc3n2Cc2ccccc2)c(Cl)c1` [Example D20, 2-(4-(9-benzyl-6-(1-methylcyclopropoxy)-9H-purin-8-yl)-3-chlorophenoxy)-N,N-dimethylacetamide]: the IC50 in the assay on DLD-1 BRCA2−/− cells (setting [5]) was 200 nM; in the assay on DLD-1 cells (setting [6]), over 10000 nM.
In the case of `CC1(Oc2ncnc3c2nc(-c2ccc(OCCCN4CC[C@H](O)C4)cc2Cl)n3Cc2cc(Cl)ccn2)CC1` [Example T503, (S)-1-(3-(3-chloro-4-(9-((4-chloropyridin-2-yl)methyl)-6-(1-methylcyclopropoxy)-9H-purin-8-yl)phenoxy)propyl)pyrrolidin-3-ol], the IC50 in the assay with DLD-1 BRCA2−/− cells (setting [3]) was 100 nM; in the assay on DLD-1 cells (setting [4]) it was over 7940 nM.
In the case of `CC(CCOc1cccc(-c2nc3c(OC4(C)CC4)ncnc3n2Cc2cccc(Cl)c2)c1Cl)C(=O)O` (racemic) [Example T293, 4-(2-chloro-3-(9-(3-chlorobenzyl)-6-(1-methylcyclopropoxy)-9H-purin-8-yl)phenoxy)-2-methylbutanoic acid], the IC50 is 31.6 nM in the assay on DLD-1 BRCA2−/− cells (DLD-1, DLD-1 BRCA2-/- proliferation, column head only partly shown, read-out: POLQ PD Prolif Lumin (converted)) and over 3160 nM in the assay with DLD-1 cells (DLD-1, DLD-1 BRCA2 wt control proliferation, column head only partly shown, read-out: POLQ PD Prolif Lumin (converted)).
In the case of `Cc1ccnc(Cn2c(-c3ccc(C(=O)N4CC[C@@H](O)C4)cc3Cl)nc3c(OC4(C)CC4)ncnc32)c1` [Example T311, (R)-(3-chloro-4-(6-(1-methylcyclopropoxy)-9-((4-methylpyridin-2-yl)methyl)-9H-purin-8-yl)phenyl)(3-hydroxypyrrolidin-1-yl)methanone], the IC50 is 3980 nM in the assay on DLD-1 BRCA2−/− cells (DLD-1, first proliferation column (c5), taken as DLD-1 BRCA2-/-, read-out: POLQ PD Prolif Lumin (converted)) and over 10000 nM with DLD-1 cells (DLD-1, second proliferation column (c6), taken as DLD-1 BRCA2 wt, read-out: POLQ PD Prolif Lumin (converted)).
Turning to `COc1ccc(Cl)cc1Cn1c(-c2ccc(O[C@H]3CC[C@H](C(=O)O)CC3)cc2Cl)nc2c(OC3(C)CC3)ncnc21` [Example U43, (1r,4r)-4-(3-chloro-4-(9-(5-chloro-2-methoxybenzyl)-6-(1-methylcyclopropoxy)-9H-purin-8-yl)phenoxy)cyclohexane-1-carboxylic acid], the “POLQ PD Prolif Lumin BRCA2 −/− mean pIC50” value with DLD-1 BRCA2−/− cells (mean) was 7.2. Moreover, the “POLQ PD Prolif Lumin DLD1 mean pIC50” value with DLD-1 cells (mean) is under 5.0.
On to `Cc1cc(OCCN2CCNCC2)ncc1-c1nc2c(OC3(C)CCC3)ncnc2n1Cc1ccccc1` [Example 24, 9-Benzyl-8-(4-methyl-6-(2-(piperazin-1-yl)ethoxy)pyridin-3-yl)-6-(1-methylcyclobutoxy)-9H-purine], for which the IC50 with DLD-1 BRCA2−/− cells (setting [5]) was 158 nM; in the assay on DLD-1 cells (setting [6]), 3980 nM.
On to `COc1ccc(Cl)cc1Cn1c(-c2cccc(O[C@H]3C[C@H](C(=O)O)C3)c2Cl)nc2c(OC3(C)CC3)ncnc21` [Example U51, (1r,3r)-3-(2-chloro-3-(9-(5-chloro-2-methoxybenzyl)-6-(1-methylcyclopropoxy)-9H-purin-8-yl)phenoxy)cyclobutane-1-carboxylic acid], for which, in the assay with DLD-1 BRCA2−/− cells (mean), the “POLQ PD Prolif Lumin BRCA2 −/− mean pIC50” value came to 7.2. The “POLQ PD Prolif Lumin DLD1 mean pIC50” value in the assay on DLD-1 cells (mean) is under 5.0.
Regarding `Cc1cc(OCCN2CCN(C)CC2)ncc1-c1nc2c(OC3(C)CC3)ncnc2n1Cc1ccccc1` [Example C3, 9-benzyl-8-(4-methyl-6-(2-(4-methylpiperazin-1-yl)ethoxy)pyridin-3-yl)-6-(1-methylcyclopropoxy)-9H-purine], the IC50 with DLD-1 BRCA2−/− cells (setting [5]) is 316 nM; in the assay with DLD-1 cells (setting [6]), 7940 nM.
Consider `CC1(Oc2ncnc3c2nc(-c2ccc(OCCN4CCNCC4)cc2Cl)n3Cc2ncc(Cl)s2)CC1` [Example L6, 5-chloro-2-((8-(2-chloro-4-(2-(piperazin-1-yl)ethoxy)phenyl)-6-(1-methylcyclopropoxy)-9H-purin-9-yl)methyl)thiazole], for which the values for the IC50 with DLD-1 BRCA2−/− cells (setting [5]) and in the assay with DLD-1 cells (setting [6]) were 398 nM and over 10000 nM, respectively.
Turning to `C[C@H](CCOc1cccc(-c2nc3c(OC4(C)CC4)ncnc3n2Cc2cc(Cl)ccc2F)c1Cl)C(=O)O` [Example U26, (R)-4-(2-chloro-3-(9-(5-chloro-2-fluorobenzyl)-6-(1-methylcyclopropoxy)-9H-purin-8-yl)phenoxy)-2-methylbutanoic acid], the IC50 with DLD-1 BRCA2−/− cells (setting [7]) was 25.1 nM; in the assay on DLD-1 cells (setting [8]), over 10000 nM.
As for `CC1(Oc2ncnc3c2nc(-c2ccc(OCCCN4CC(O)C4)cc2Cl)n3Cc2cc(C(F)F)ccn2)CC1` [Example T452, 1-(3-(3-chloro-4-(9-((4-(difluoromethyl)pyridin-2-yl)methyl)-6-(1-methylcyclopropoxy)-9H-purin-8-yl)phenoxy)propyl)azetidin-3-ol], the IC50 is 794 nM with DLD-1 BRCA2−/− cells (setting [1]) and over 10000 nM with DLD-1 cells (setting [2]).
As for `CC1(Oc2ncnc3c2nc(-c2ccc(OCCN4CCNCC4)cc2Cl)n3Cc2cscn2)CC1` [Example K2, 4-((8-(2-chloro-4-(2-(piperazin-1-yl)ethoxy)phenyl)-6-(1-methylcyclopropoxy)-9H-purin-9-yl)methyl)thiazole], the IC50 with DLD-1 BRCA2−/− cells (setting [5]) is 2000 nM; in the assay with DLD-1 cells (setting [6]), 6310 nM.
As to `COc1ccc(Cl)cc1Cn1c(-c2ccc(OCCOCC(=O)O)cc2Cl)nc2c(OC3(C)CC3)ncnc21` [Example U48, 2-(2-(3-chloro-4-(9-(5-chloro-2-methoxybenzyl)-6-(1-methylcyclopropoxy)-9H-purin-8-yl)phenoxy)ethoxy)acetic acid], the figures for the IC50 in the assay on DLD-1 BRCA2−/− cells (setting [7]) and in the assay with DLD-1 cells (setting [8]) were 631 nM and over 10000 nM, respectively.
As to `CC1(Oc2ncnc3c2nc(-c2cccc(OCC(=O)O)c2Cl)n3Cc2cccc(Cl)c2)CC1` [Example T41, 2-(2-chloro-3-(9-(3-chlorobenzyl)-6-(1-methylcyclopropoxy)-9H-purin-8-yl)phenoxy)acetic acid], the IC50 is over 7940 nM in the assay on DLD-1 BRCA2−/− cells (DLD-1, DLD-1 BRCA2 −/− cells, mean, read-out: POLQ PD Prolif Lumin BRCA2 −/− mean pIC50 (converted)) and over 10000 nM in the assay with DLD-1 cells (DLD-1, DLD1 BRCA2 wt cells, mean, read-out: POLQ PD Prolif Lumin DLD1 mean PIC50 (converted)).
For `C[C@H](CCOc1ccc(-c2nc3c(OC4(C)CC4)ncnc3n2Cc2cccc(Cl)c2)c(Cl)c1)C(=O)O` (single isomer, unassigned; isomer 1) [Example 34, 4-(3-Chloro-4-(9-(3-chlorobenzyl)-6-(1-methylcyclopropoxy)-9H-purin-8-yl)phenoxy)-2-methylbutanoic acid (Isomer 1)], the IC50 was 200 nM in the assay on DLD-1 BRCA2−/− cells (DLD-1, 288 h, DLD-1 BRCA2−/−, 12 days, Cell Titre Glo 3D, read-out: POLQ PD Prolif Lumin BRCA2 −/− Mean pIC50 (converted)) and over 10000 nM in the assay with DLD-1 cells (DLD-1, 168 h, DLD-1 (BRCA2 wt control), 7 days, Cell Titre Glo 3D, read-out: POLQ PD Prolif Lumin DLD1 Mean pIC50 (converted)).
